# Values quoted from earlier work, collected in patent US4916151A, “Method of treating parkinson's syndrome” (Merrell Dow Pharmaceuticals Inc., priority 1989, dated 1990).
# Columns and labels:
# MAO = conditions: literature; selectivity lost as dosage is increased
# depression = conditions: literature reports
# [1] = literature
SMILES,preferential inhibition of MAO-A or MAO-B (MAO),clinical antidepressant effect (depression),potentiation of L-dopa for treatment of Parkinson's disease [1]
N[C@@H]1C[C@H]1c1ccccc1 (relative stereo) [tranylcypromine],not preferential in their action upon MAO,,
C#CCN(C)[C@H](C)Cc1ccccc1 [L-deprenyl],MAO-B is preferentially inhibited,clinically effective antidepressant agents,potentiate L-dopa for the treatment of Parkinson's disease without producing peripheral side effects
C#CCN(C)CCCOc1ccc(Cl)cc1Cl [clorgyline],,clinically effective antidepressant agents,
Cc1cc(C(=O)NNCc2ccccc2)no1 [isocarboxazid],not preferential in their action upon MAO,,
C#CCN(C)Cc1ccccc1 [pargyline],MAO-B is preferentially inhibited,clinically effective antidepressant agents,
NNCCc1ccccc1 [phenelzine],not preferential in their action upon MAO,,
